# Assay results taken from US20120190752A1, “EXO-S-MECAMYLAMINE METHOD, USE, AND COMPOUND FOR TREATMENT” (Targacept Inc., priority 2009, published 2012).
# System: subjects with major depressive disorder (MDD) who were inadequate responders to citalopram
# Assay: SIS (Sheehan Irritability Scale), total and individual items, Phase 2b add-on trial
# Assay type: in vivo, human
# Set-up: SIS Adj. Mean change / SIS total score change Adjusted Mean / SIS Anger With Others change Adjusted Mean / SIS Anger With Self change Adjusted Mean / SIS Edginess change Adjusted Mean / SIS Irritability change Adjusted Mean / SIS Moodiness change Adjusted Mean / SIS Temper change Adjusted Mean: scale not given here
# Description: In more detail, a multi-center double-blind, randomized, placebo-controlled, parallel group, flexible dose titration study of TC-5214 as adjunctive therapy in subjects with major depressive disorder (MDD) who were inadequate responders to citalopram was conducted in centers in the US and India. The study consisted of a screening period, baseline/washout period, open-label phase, double-blind phase, and a follow-up visit. Subject participation in the study could continue for up to 16 weeks of treatment. Following a washout period of up to 28 days for other antidepressants, subjects with MDD and a MADRS total score >/=28 and a Clinical Global Impression-Severity (CGI-S) score >/=4 were enrolled on Day 1 into an open-label citalopram-only phase of the study. This phase lasted 8 weeks, with citalopram (CIT) dose increased from a once-daily dose of 20 mg (Day 1 through Week 4) to 40 mg (Week 4 through Week 8). A total of 579 subjects entered the open-label citalopram phase. At Week 8, subjects who tolerated 40 mg CIT, but whose MADRS score was reduced <50% from baseline and no lower than 17, and CGI-S≧4, were considered inadequate responders. These subjects (n=270) were randomized in a double-blind fashion to receive either placebo or TC-5214-23 as add-on therapy to continued CIT. The double-blind phase of the study also lasted 8 weeks (Week 8 to Week 16). Study drug, TC-5214-23 or placebo, was started at 2 mg daily (1 mg twice per day [BID] dosing), added on to continuing CIT (40 mg PO qd). After 2 weeks of treatment, the dose of TC-5214 could be increased to 4 mg (2 mg BID) or continued unchanged, with up-titration based upon good tolerability and inadequate therapeutic response. After a further 2 weeks, the dose of TC-5214 could be increased again to 8 mg (4 mg BID) if judged appropriate by the investigator, based upon good tolerability and inadequate therapeutic response. At any time during the double-blind phase of the study, placebo or TC-5214-23 could be reduced to the previous dose level following the emergence of unacceptable adverse events (AEs). […] At this follow-up, any signs or symptoms of relapse were evaluated. If a subject was prematurely discontinued from the study between Week 8 and Week 16 for any reason, the investigator was to make every effort to perform all evaluations as per protocol, assuming the subject had reached the end of the double-blind add-on treatment phase. These evaluations were to be made as soon as possible and within 2 weeks of discontinuation. […] There was no meaningful difference in results as a function of age, gender, site, or smoking status. [table] With regard to efficacy endpoints, the following tables present efficacy used in the ITT (Intent-to-Treat) and PP (Per Protocol) populations unless otherwise specific. The primary inference was based upon Week 16 visit using the ITT population. Change from baseline was obtained by subtracting the baseline values from the individual on-treatment values. Change from Week 16 was obtained by subtracting the Week 16 values from the individual follow-up visit (Week 18/19) values. If either the baseline or Week 16 or on-treatment or follow-up value was missing, the change from baseline or Week 16 value was also set to missing. To account for missing data, the last observation carry forward (LOCF) method was used for the ITT and PP populations. Thus, the last available on-therapy observation for a subject, including the observation at premature discontinuation, was used to estimate subsequent missing data points. For efficacy, baseline data were collected at Week 8 in the double-blind augmentation phase electronic case report form pages. For SIS, the endpoint was the change from Week 8 (double-blind baseline) to Week 16 of the SIS. Changes were analyzed using ANCOVA. Each SIS item score was also analyzed using ANCOVA. […]
# [1] = ITT population, Double Blind Week 16 LOCF, change from DB baseline
# [2] = ITT population, Double Blind Week 18 LOCF (Follow-up), change from Week 16
# [3] = PP population, Double Blind Week 16 LOCF, change from DB baseline
# [4] = PP population, Double Blind Week 18 LOCF (Follow-up), change from Week 16
smiles,measurement,setting,value
CN[C@@]1(C)[C@@H]2CC[C@@H](C2)C1(C)C [TC5214],SIS Anger With Others change Adjusted Mean,[1],−2.56
same,SIS Anger With Others change Mean Difference between TC-5214 and Placebo,[1],1.22
same,SIS Anger With Self change Adjusted Mean,[1],−2.29
same,SIS Anger With Self change Mean Difference between TC-5214 and Placebo,[1],1.01
same,SIS Edginess change Adjusted Mean,[1],−2.55
same,SIS Edginess change Mean Difference between TC-5214 and Placebo,[1],1.14
same,SIS Frustration change Adjusted Mean,[1],−2.74
same,SIS Frustration change Mean Difference between TC-5214 and Placebo,[1],1.42
same,SIS Irritability change Adjusted Mean,[1],−2.74
same,SIS Irritability change Mean Difference between TC-5214 and Placebo,[1],1.38
same,SIS Moodiness change Adjusted Mean,[1],−3.00
same,SIS Moodiness change Mean Difference between TC-5214 and Placebo,[1],1.51
same,SIS Temper change Adjusted Mean,[1],−2.37
same,SIS Temper change Mean Difference between TC-5214 and Placebo,[1],1.19
same,SIS Anger With Others change Adjusted Mean,[2],−0.07
same,SIS Anger With Others change Mean Difference between TC-5214 and Placebo,[2],0.01
same,SIS Anger With Self change Adjusted Mean,[2],−0.07
same,SIS Anger With Self change Mean Difference between TC-5214 and Placebo,[2],0.09
same,SIS Edginess change Adjusted Mean,[2],−0.24
same,SIS Edginess change Mean Difference between TC-5214 and Placebo,[2],0.01
same,SIS Frustration change Adjusted Mean,[2],−0.09
same,SIS Frustration change Mean Difference between TC-5214 and Placebo,[2],−0.06
same,SIS Irritability change Adjusted Mean,[2],−0.14
same,SIS Irritability change Mean Difference between TC-5214 and Placebo,[2],−0.08
same,SIS Moodiness change Adjusted Mean,[2],−0.13
same,SIS Moodiness change Mean Difference between TC-5214 and Placebo,[2],−0.05
same,SIS Temper change Adjusted Mean,[2],−0.11
same,SIS Temper change Mean Difference between TC-5214 and Placebo,[2],−0.07
same,SIS Anger With Others change Adjusted Mean,[3],−2.77
same,SIS Anger With Others change Mean Difference between TC-5214 and Placebo,[3],1.42
same,SIS Anger With Self change Adjusted Mean,[3],−2.54
same,SIS Anger With Self change Mean Difference between TC-5214 and Placebo,[3],1.13
same,SIS Edginess change Adjusted Mean,[3],−2.81
same,SIS Edginess change Mean Difference between TC-5214 and Placebo,[3],1.36
same,SIS Frustration change Adjusted Mean,[3],−3.00
same,SIS Frustration change Mean Difference between TC-5214 and Placebo,[3],1.59
same,SIS Irritability change Adjusted Mean,[3],−3.00
same,SIS Irritability change Mean Difference between TC-5214 and Placebo,[3],1.58
same,SIS Moodiness change Adjusted Mean,[3],−3.34
same,SIS Moodiness change Mean Difference between TC-5214 and Placebo,[3],1.71
same,SIS Temper change Adjusted Mean,[3],−2.55
same,SIS Temper change Mean Difference between TC-5214 and Placebo,[3],1.36
same,SIS Anger With Others change Adjusted Mean,[4],−0.10
same,SIS Anger With Others change Mean Difference between TC-5214 and Placebo,[4],0.03
same,SIS Anger With Self change Adjusted Mean,[4],−0.09
same,SIS Anger With Self change Mean Difference between TC-5214 and Placebo,[4],0.11
same,SIS Edginess change Adjusted Mean,[4],−0.27
same,SIS Edginess change Mean Difference between TC-5214 and Placebo,[4],0.05
same,SIS Frustration change Adjusted Mean,[4],−0.09
same,SIS Frustration change Mean Difference between TC-5214 and Placebo,[4],−0.04
same,SIS Irritability change Adjusted Mean,[4],−0.14
same,SIS Irritability change Mean Difference between TC-5214 and Placebo,[4],−0.07
same,SIS Moodiness change Adjusted Mean,[4],−0.13
same,SIS Moodiness change Mean Difference between TC-5214 and Placebo,[4],−0.01
same,SIS Temper change Adjusted Mean,[4],−0.14
same,SIS Temper change Mean Difference between TC-5214 and Placebo,[4],−0.00
